Data taken from US10611731B2, “5-methyl-6-phenyl-4,5-dihydro-2H-pyridazin-3-one derivative” (OTSUKA PHARMACEUTICAL CO., LTD., priority 2016, dated 2020).

tested on: human childhood brain tumor cell lines (PFSK-1); experiment: Growth inhibitory activity against PFSK-1 cells (WST-8, Cell Counting Kit-8); assay type: cell-based; conditions: Homo sapiens, 72 h, 3 days incubation with test compound, WST-8 OD 450/630 nm, read-out: IC50 (concentration inhibiting 50% of the cell growth)
Procedure, shortened: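 Cells seeded in RPMI 1640 with 10% FBS and preincubated 24 h at 37 °C, 5% CO2, then exposed to compound for 3 days. IC50 (nM) from growth relative to untreated control.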

| Compound | IC50 |
| --- | --- |
| CC1CC(=O)NN=C1c1ccc(OCC2(O)CC2)c(Cl)c1F (stereo not shown) [Example 47, 6-{3-chloro-2-fluoro-4-[(1-hydroxycyclopropyl)methoxy]phenyl}-5-methyl-4,5-dihydro-2H-pyridazin-3-one] | 2.4 nM |
| CC(O)COc1c(F)cc(C2=NNC(=O)CC2C)cc1Cl (stereo not shown) [Example 52, 6-[3-Chloro-5-fluoro-4-(2-hydroxypropoxy)phenyl]-5-methyl-4,5-dihydro-2H-pyridazin-3-one] | 3.8 nM |
| C[C@@H]1CC(=O)NN=C1c1ccc(OCCO)c(Cl)c1F [Example 126, (5R)-(−)-6-[3-Chloro-2-fluoro-4-(2-hydroxyethoxy)phenyl]-5-methyl-4,5-dihydro-2H-pyridazin-3-one] | 2.9 nM |
| Cc1cc(C2=NNC(=O)CC2C)cc(F)c1OCC(C)O (stereo not shown) [Example 56, 6-[3-Fluoro-4-(2-hydroxypropoxy)-5-methylphenyl]-5-methyl-4,5-dihydro-2H-pyridazin-3-one] | 7.6 nM |
| C=Cc1c(OCCCO)ccc(C2=NNC(=O)CC2C)c1F (stereo not shown) [Example 85, 6-[2-Fluoro-4-(3-hydroxypropoxy)-3-vinylphenyl]-5-methyl-4,5-dihydro-2H-pyridazin-3-one] | 4 nM |
| C=Cc1c(OCCO)ccc(C2=NNC(=O)CC2C)c1F (stereo not shown) [Example 135, 6-[2-Fluoro-4-(2-hydroxyethoxy)-3-vinylphenyl]-5-methyl-4,5-dihydro-2H-pyridazin-3-one] | 6.8 nM |
| CCC(O)COc1c(C)cc(C2=NNC(=O)CC2C)cc1Cl (stereo not shown) [Example 65, 6-[3-Chloro-4-(2-hydroxybutoxy)-5-methylphenyl]-5-methyl-4,5-dihydro-2H-pyridazin-3-one] | 4.3 nM |
| CCC(O)COc1c(Cl)cc(C2=NNC(=O)CC2C)cc1Cl (stereo not shown) [Example 63, 6-[3,5-Dichloro-4-(2-hydroxybutoxy)phenyl]-5-methyl-4,5-dihydro-2H-pyridazin-3-one] | 5 nM |
| Cc1cc(C2=NNC(=O)CC2C)cc(Cl)c1OCC(C)(C)CO (stereo not shown) [Example 72, 6-[3-chloro-4-(3-hydroxy-2,2-dimethylpropoxy)-5-methylphenyl]-5-methyl-4,5-dihydro-2H-pyridazin-3-one] | 0.9 nM |
| Cc1cc(C2=NNC(=O)CC2C)c(O)c(Cl)c1OCC(C)(C)O (stereo not shown) [Example 129, 6-[3-Chloro-2-hydroxy-4-(2-hydroxy-2-methylpropoxy)-5-methylphenyl]-5-methyl-4,5-dihydro-2H-pyridazin-3-one] | 3.6 nM |
| Cc1c(OC/C=C\CO)ccc(C2=NNC(=O)CC2C)c1F (stereo not shown) [Example 92, 6-[2-Fluoro-4-[(Z)-4-hydroxy-2-butenyloxy]-3-methylphenyl]-5-methyl-4,5-dihydro-2H-pyridazin-3-one] | 4.9 nM |
| CC1CC(=O)NN=C1c1cc(F)c(OC/C=C\CO)c(Cl)c1F (stereo not shown) [Example 152, 6-{3-Chloro-2,5-difluoro-4-[(Z)-4-hydroxy-2-butenyloxy]phenyl}-5-methyl-4,5-dihydro-2H-pyridazin-3-one] | 3.4 nM |
| Cc1c(F)c(C2=NNC(=O)CC2C)cc(Cl)c1OCC(C)(C)O (stereo not shown) [Example 35, 6-[5-Chloro-2-fluoro-4-(2-hydroxy-2-methylpropoxy)-3-methylphenyl]-5-methyl-4,5-dihydro-2H-pyridazin-3-one] | 6.3 nM |
| CC1CC(=O)NN=C1c1ccc(OCCCO)c(Br)c1F (stereo not shown) [Example 12, 6-[3-bromo-2-fluoro-4-(3-hydroxypropoxy)phenyl]-5-methyl-4,5-dihydro-2H-pyridazin-3-one] | 1.9 nM |
| CCC(O)COc1ccc(C2=NNC(=O)CC2C)c(O)c1Cl (stereo not shown) [Example 163, 6-[3-Chloro-2-hydroxy-4-(2-hydroxybutoxy)phenyl]-5-methyl-4,5-dihydro-2H-pyridazin-3-one] | 5.2 nM |
| CC1CC(=O)NN=C1c1cc(Cl)c(OCC(C)(C)CCO)c(Cl)c1 (stereo not shown) [Example 100, 6-[3,5-dichloro-4-(4-hydroxy-2,2-dimethylbutoxy)phenyl]-5-methyl-4,5-dihydro-2H-pyridazin-3-one] | 1.6 nM |
| Cc1c(OCCCO)ccc(C2=NNC(=O)CC2C)c1F (stereo not shown) [Example 21, 6-[2-Fluoro-4-(3-hydroxypropoxy)-3-methylphenyl]-5-methyl-4,5-dihydro-2H-pyridazin-3-one] | 4 nM |
| Cc1cc(C2=NNC(=O)CC2C)c(F)c(Cl)c1OC/C=C\CO (stereo not shown) [Example 151, 6-{3-Chloro-2-fluoro-4-[(Z)-4-hydroxy-2-butenyloxy]-5-methylphenyl}-5-methyl-4,5-dihydro-2H-pyridazin-3-one] | 1.3 nM |
| CC1CC(=O)NN=C1c1ccc(OCCCCCO)c(Cl)c1F (stereo not shown) [Example 91, 6-[3-Chloro-2-fluoro-4-(5-hydroxypentoxy)phenyl]-5-methyl-4,5-dihydro-2H-pyridazin-3-one] | 6 nM |
| CC1CC(=O)NN=C1c1cc(F)c(OCCCCO)c(Br)c1 (stereo not shown) [Example 80, 6-[3-Bromo-5-fluoro-4-(4-hydroxybutoxy)phenyl]-5-methyl-4,5-dihydro-2H-pyridazin-3-one] | 5.1 nM |
| Cc1cc(C2=NNC(=O)CC2C)cc(Cl)c1OCC(C)(C)CCO (stereo not shown) [Example 98, 6-[3-chloro-4-(4-hydroxy-2,2-dimethylbutoxy)-5-methylphenyl]-5-methyl-4,5-dihydro-2H-pyridazin-3-one] | 3.6 nM |
| Cc1c(O)c(C2=NNC(=O)CC2C)cc(Cl)c1OCC1(O)CC1 (stereo not shown) [Example 176, 6-{5-Chloro-2-hydroxy-4-[(1-hydroxycyclopropyl)methoxy]-3-methylphenyl}-5-methyl-4,5-dihydro-2H-pyridazin-3-one] | 9.2 nM |
| Cc1cc(C2=NNC(=O)C[C@H]2C)cc(Cl)c1OCCO [Example 116, (5R)-(−)-6-[3-chloro-4-(2-hydroxyethoxy)-5-methylphenyl]-5-methyl-4,5-dihydro-2H-pyridazin-3-one] | 4.3 nM |
| CC1CC(=O)NN=C1c1ccc(OCC(C)(C)CCO)c(F)c1F (stereo not shown) [Example 102, 6-[2,3-Difluoro-4-(4-hydroxy-2,2-dimethylbutoxy)phenyl]-5-methyl-4,5-dihydro-2H-pyridazin-3-one] | 3.4 nM |

Continued by falling IC50, values first:

| IC50 | Compound |
| --- | --- |
| 9 nM | CC1CC(=O)NN=C1c1ccc(OCC(C)(C)O)c(C#N)c1F (stereo not shown) [Example 105, 2-Fluoro-6-(2-hydroxy-2-methylpropoxy)-3-(4-methyl-6-oxo-4,5-dihydro-1H-pyridazin-3-yl)benzonitrile] |
| 8 nM | CCc1c(OCCCO)ccc(C2=NNC(=O)CC2C)c1F (stereo not shown) [Example 23, 6-[3-Ethyl-2-fluoro-4-(3-hydroxypropoxy)phenyl]-5-methyl-4,5-dihydro-2H-pyridazin-3-one] |
| 7.9 nM | Cc1c(OCC(C)(C)CO)ccc(C2=NNC(=O)CC2C)c1F (stereo not shown) [Example 8, 6-[2-Fluoro-4-(3-hydroxy-2,2-dimethylpropoxy)-3-methylphenyl]-5-methyl-4,5-dihydro-2H-pyridazin-3-one] |
| 7.1 nM | CC1CC(=O)NN=C1c1ccc(OCC2(CO)CC2)c(F)c1F (stereo not shown) [Example 145, 6-{2,3-Difluoro-4-[1-(hydroxymethyl)cyclopropylmethoxy]phenyl}-5-methyl-4,5-dihydro-2H-pyridazin-3-one] |
| 5.5 nM | Cc1cc(C2=NNC(=O)CC2C)cc(C)c1OCC(C)O (stereo not shown) [Example 51, 6-[4-(2-Hydroxypropoxy)-3,5-dimethylphenyl]-5-methyl-4,5-dihydro-2H-pyridazin-3-one] |
| 5.3 nM | Cc1c(OC/C=C\CO)ccc(C2=NNC(=O)CC2C)c1O (stereo not shown) [Example 153, 6-{2-Hydroxy-4-[(Z)-4-hydroxy-2-butenyloxy]-3-methylphenyl}-5-methyl-4,5-dihydro-2H-pyridazin-3-one] |
| 4.3 nM | Cc1c(F)c(C2=NNC(=O)CC2C)cc(Cl)c1OCC(F)(F)CO (stereo not shown) [Example 158, 6-[5-Chloro-4-(2,2-difluoro-3-hydroxypropoxy)-2-fluoro-3-methylphenyl]-5-methyl-4,5-dihydro-2H-pyridazin-3-one] |
| 4.1 nM | Cc1cc(C2=NNC(=O)CC2C)c(O)c(Cl)c1OCC1(O)CC1 (stereo not shown) [Example 175, 6-{3-Chloro-2-hydroxy-4-[(1-hydroxycyclopropyl)methoxy]-5-methylphenyl}-5-methyl-4,5-dihydro-2H-pyridazin-3-one] |
| 4 nM | Cc1cc(C2=NNC(=O)CC2C)cc(C)c1OCC(C)(C)O (stereo not shown) [Example 32, 6-[4-(2-Hydroxy-2-methylpropoxy)-3,5-dimethylphenyl]-5-methyl-4,5-dihydro-2H-pyridazin-3-one] |
| 3.3 nM | C=Cc1c(OCC(F)(F)CO)ccc(C2=NNC(=O)CC2C)c1F (stereo not shown) [Example 114, 6-[4-(2,2-Difluoro-3-hydroxypropoxy)-2-fluoro-3-vinylphenyl]-5-methyl-4,5-dihydro-2H-pyridazin-3-one] |
| 2.9 nM | C[C@@H]1CC(=O)NN=C1c1cc(F)c(OCC2(O)CC2)c(Cl)c1 [Example 119, (5R)-(−)-6-{3-chloro-5-fluoro-4-[(1-hydroxycyclopropyl)methoxy]phenyl}-5-methyl-4,5-dihydro-2H-pyridazin-3-one] |
| 2.8 nM | Cc1cc(C2=NNC(=O)CC2C)cc(Cl)c1OC[C@H](C)O (stereo partly drawn) [Example 39, 6-{3-Chloro-4-[(2S)-2-hydroxypropoxy]-5-methylphenyl}-5-methyl-4,5-dihydro-2H-pyridazin-3-one] |
| 2.3 nM | CC1CC(=O)NN=C1c1ccc(OCC(F)(F)CO)c(Br)c1F (stereo not shown) [Example 112, 6-[3-bromo-4-(2,2-difluoro-3-hydroxypropoxy)-2-fluorophenyl]-5-methyl-4,5-dihydro-2H-pyridazin-3-one] |
| 1.6 nM | Cc1cc(C2=NNC(=O)CC2C)cc(Cl)c1OC[C@@H](C)O (stereo partly drawn) [Example 40, 6-{3-chloro-4-[(2R)-2-hydroxypropoxy]-5-methylphenyl}-5-methyl-4,5-dihydro-2H-pyridazin-3-one] |
| 1.6 nM | CC1CC(=O)NN=C1c1cc(Cl)c(OCC(F)(F)CO)c(Cl)c1 (stereo not shown) [Example 109, 6-[3,5-dichloro-4-(2,2-difluoro-3-hydroxypropoxy)phenyl]-5-methyl-4,5-dihydro-2H-pyridazin-3-one] |
| 1.1 nM | Cc1cc(C2=NNC(=O)CC2C)cc(Cl)c1OCC(F)(F)CO (stereo not shown) [Example 113, 6-[3-chloro-4-(2,2-difluoro-3-hydroxypropoxy)-5-methylphenyl]-5-methyl-4,5-dihydro-2H-pyridazin-3-one] |
